Values after ≈ are worked out from the molar mass of the structure shown.
What was measured:
[1] = distilled water, 25° C.
Description: (§1) Afterwards, each sample was centrifuged at 12,000×g for 20 min. The supernatant of each sample was then filtered through a 0.45-μm membrane filter and the concentration of the compound in the supernatant, which is defined as the water-soluble component, was measured by its absorbance at 254 nm using HPLC, and its absolute solubility was calculated in reference to the concentration-absorbance standard curve.

[2] = cited from earlier work
[3] = test system: blood plasma proteins (primarily albumin); conditions: cited from earlier work
[4] = in vivo; cited from earlier work
[5] = aqueous solutions, 80° C., pH 5; cited from earlier work
[6] = physchem; conditions: distilled water, 25 °C, thermodynamic from solid
Description: as §1

[7] = etoposide phosphate plus cisplatin; cited from earlier work
[8] = test system: etoposide-resistant cell line; conditions: cited from earlier work

## COc1cc(C2c3cc4c(cc3C(OC3OC5COC(C)OC5C(OC5OC(CO)C(O)C(O)C5O)C3O)C3COC(=O)C23)OCO4)cc(OC)c1O (stereo not drawn)
[1]
  water solubility relative to etoposide: 200 times

## COc1cc([C@@H]2c3cc4c(cc3[C@@H](O[C@@H]3O[C@@H]5CO[C@@H](C)O[C@H]5[C@H](O)[C@H]3O)[C@H]3COC(=O)[C@H]23)OCO4)cc(OC)c1O [etoposide, Etoposide]
[2]; 37° C.
  solubility in aqueous solutions: 150 to 170 µg/mL
[3]
  bound to blood plasma proteins: 97%
[4]
  half-life: 4 to 11 h
[5]
  half life: 0.643 h
[6]
  solubility at 12 h: 56 µg/mL (≈ 95.1 µM)

## COc1cc([C@@H]2c3cc4c(cc3[C@@H](O[C@@H]3O[C@@H]5CO[C@@H](C)O[C@H]5[C@H](O)[C@H]3O)[C@H]3COC(=O)[C@H]23)OCO4)cc(OC)c1OP(=O)(O)O [Etoposide phosphate]
[2]
  aqueous solubility: 20000 µg/mL
[7]
  difference in PK/PD parameters or overall response rate versus etoposide plus cisplatin: no statistically significant difference

## COc1cc([C@@H]2c3cc4c(cc3[C@@H](O[C@@H]3O[C@@H]5CO[C@@H](C)O[C@H]5[C@H](O)[C@H]3O)[C@H]3COC(=O)[C@H]23)OCO4)cc(OC)c1OC(=O)OCC1COC(C)(C)O1 (stereo partly drawn) [CAP7.1]
[8]
  concentrations cytotoxic to an etoposide-resistant cell line: nanomolar concentrations
